≈ marks a conversion by molar mass, not a printed value. Like-named read-outs stand apart in the source and are kept apart here.
Key:
[1] = tested on: Staphylococcus epidermidis ATCC 12228; experiment: Broth microdilution (CLSI), growth, MIC and MBC; type: cell-based; details: for MIC: Staphylococcus epidermidis, ATCC12228, S. epidermidis, 24 h at 37 °C; for MBC/MFC: S. epidermidis (MBC)
[2] = tested on: Escherichia coli ATCC 25922; experiment: Broth microdilution (CLSI), growth, MIC and MBC; type: cell-based; details: for MBC/MFC: E. coli (MBC); for MIC: Escherichia coli, ATCC25922, E. coli, 24 h at 37 °C; for antimicrobial properties against E. coli, ranking in words: among compounds 1–10
[3] = tested on: Aspergillus flavus ATCC 9643; experiment: Broth microdilution (CLSI), growth, MIC and MFC; type: cell-based; details: for MBC/MFC: A. flavus (MFC); for MIC: Aspergillus flavus, ATCC9643, A. flavus, 48 h at 37 °C
[4] = tested on: Candida albicans ATCC 10231; experiment: Broth microdilution (CLSI), growth, MIC and MFC; type: cell-based; details: for MBC/MFC: C. albicans (MFC); for inhibition at 64 µg/mL / MIC: Candida albicans; for inhibition at 64 µg/mL: ATCC10231, 64 µg/mL (highest tested concentration), read-out: C. albicans growth inhibition; for MIC: ATCC10231, C. albicans, 48 h at 37 °C
[5] = tested on: Pseudomonas aeruginosa ATCC 15442; experiment: Broth microdilution (CLSI), growth, MIC and MBC; type: cell-based; details: for MBC/MFC: P. aeruginosa (MBC); for MIC: Pseudomonas aeruginosa, ATCC15442, P. aeruginosa, 24 h at 37 °C
[6] = tested on: Staphylococcus aureus ATCC 29213; experiment: Broth microdilution (CLSI), growth, MIC and MBC; type: cell-based; details: for MIC / inhibition at 16 µg/mL: Staphylococcus aureus; for MIC: ATCC29213, S. aureus, 24 h at 37 °C; for MBC/MFC: S. aureus (MBC); for inhibition at 16 µg/mL: ATCC29213, 16 µg/mL, read-out: inhibition of S. aureus growth
[7] = tested on: human fibroblast BJ ATCC CRL-2522 cell line; experiment: Cytotoxic activity, MTT; type: cell-based; details: for toxicity to human fibroblasts, ranking in words: among compounds 1–10
Protocol: The cytotoxic properties of the tested compounds were examined using the human fibroblast BJ ATCC CRL-2522 cell line. The fibroblasts, with a final density of 1 × 10^5 cells per well, were suspended in EMEM medium containing FBS (10%) and antibiotics (penicillin, 100 IU/mL and streptomycin, 100 µg/mL), and incubated in 96-well microplates for 24 h in a humidified atmosphere with 5% CO2 at 37 °C. Next, the EMEM medium was replaced with a fresh medium, with the addition of the tested compounds in the concentration range of 1–64 µg/mL. Cell cultures without the tested derivatives were also prepared, as control samples. All the samples were incubated again for 24 h, under the same conditions. Then, the growth medium was removed from above the fibroblasts, and MTT solution (500 µg/mL) was added to each well. The plates were incubated for 4 h under the same conditions. The MTT solution was removed, and the wells were refilled with 50 µL of DMSO, to dissolve the formazan crystals produced. The spectrophotometric measurement of the samples was carried out at λ = 550 nm, using a SpectraMax i3x Multi-Mode Microplate Reader (Molecular Devices Ltd., Wokingham, UK).
The cell viability was calculated as a percentage of the control samples untreated with the tested compounds with a standard deviation. The experiment with n = 4 was carried out in four independent repetitions.

[8] = tested on: E. coli; parameters: method as in PMID 34884610; details: highest tested concentration; cited from earlier work
[9] = tested on: S. aureus; parameters: method as in PMID 34884610; details: cited from earlier work
[10] = tested on: A. fumigatus; parameters: method as in PMID 18570365; details: cited from earlier work
[11] = tested on: S. aureus; parameters: method as in Salih et al. 12; details: ref Salih et al. 12; cited from earlier work
[12] = tested on: C. albicans; parameters: method as in PMID 18570365; details: cited from earlier work
[13] = tested on: E. coli; parameters: method as in Salih et al. 12; details: ref Salih et al. 12; cited from earlier work

Structure (SMILES) | MIC [1] [µg/mL] | melting point [°C] | MBC/MFC [2] [µg/mL] | MIC [2] [µg/mL] | MBC/MFC [3] [µg/mL] | MIC [3] [µg/mL] | MBC/MFC [4] [µg/mL] | MIC [4] [µg/mL] | MBC/MFC [5] [µg/mL] | MIC [5] [µg/mL] | MIC [6] [µg/mL] | MBC/MFC [1] [µg/mL] | MBC/MFC [6] [µg/mL] | also measured
Br.Fc1ccccc1CNCCCCOc1cccc2[nH]c3ccccc3c12 [Compound 6, 4-[4-(2-fluorophenylmethylamino)butoxy]-9H-carbazole hydrobromide] | 64 | 180 to 182 | >64 | > 64 | >64 | > 64 | >64 | > 64 | >64 | > 64 | 64 |  |  | antimicrobial properties against E. coli, ranking in words [2]: weakest antimicrobial activity; inhibition at 64 µg/mL [4]: 15%
Fc1ccc(CNCCCCOc2cccc3[nH]c4ccccc4c23)cc1 [Compound 3, 4-[4-(4-fluorophenylmethylamino)butoxy]-9H-carbazole] | 32 (≈ 88.3 µM) |  | >64 | > 64 | >64 | > 64 | >64 | > 64 | >64 | > 64 | 32 (≈ 88.3 µM) |  |  | antimicrobial properties against E. coli, ranking in words [2]: strongest antimicrobial properties
Br.Fc1cccc(CNCCCCOc2cccc3[nH]c4ccccc4c23)c1 [Compound 7, 4-[4-(3-fluorophenylmethylamino)butoxy]-9H-carbazole hydrobromide] | 32 | 181 to 183 | >64 | > 64 | >64 | > 64 | >64 | > 64 | >64 | > 64 | 32 | 64 | 64 | 
Br.Fc1ccc(CNCCCCOc2cccc3[nH]c4ccccc4c23)cc1 [Compound 8, 4-[4-(4-fluorophenylmethylamino)butoxy]-9H-carbazole hydrobromide] | 32 | 203 to 206 | >64 | > 64 | >64 | > 64 | >64 | > 64 | >64 | > 64 | 32 | 64 | 64 | reduction in E. coli growth ([2]; 64 µg/mL (highest tested concentration)): 50%; antimicrobial properties against E. coli, ranking in words [2]: strongest antimicrobial properties; inhibition at 16 µg/mL [6]: 65%
Fc1ccccc1CNCCCCOc1cccc2[nH]c3ccccc3c12 [Compound 1, 4-[4-(2-fluorophenylmethylamino)butoxy]-9H-carbazole] | 64 (≈ 177 µM) | 179 to 181 | >64 | > 64 | >64 | > 64 | >64 | > 64 | >64 | > 64 | 64 (≈ 177 µM) |  |  | reduction of cell viability ([7]; 32 µg/mL, human fibroblasts, 24 h): about 60%; toxicity to human fibroblasts, ranking in words [7]: least toxic
C[C@H](NCCCCOc1cccc2[nH]c3ccccc3c12)c1ccccc1 [Compound 5, (S)-4-[4-(1-phenylethylamino)butoxy]-9H-carbazole] | 32 (≈ 89.3 µM) |  | >64 | > 64 | >64 | > 64 | >64 | > 64 | >64 | > 64 | 32 (≈ 89.3 µM) | 64 (≈ 179 µM) | 64 (≈ 179 µM) | 
Br.C[C@H](NCCCCOc1cccc2[nH]c3ccccc3c12)c1ccccc1 [Compound 10, (S)-4-[4-(1-phenylethylamino)butoxy]-9H-carbazole hydrobromide] | 32 |  | >64 | > 64 | >64 | > 64 | >64 | > 64 | >64 | > 64 | 32 | 64 | 64 | 
C[C@@H](NCCCCOc1cccc2[nH]c3ccccc3c12)c1ccccc1 [Compound 4, (R)-4-[4-(1-phenylethylamino)butoxy]-9H-carbazole] | 32 (≈ 89.3 µM) |  | >64 | > 64 | >64 | > 64 | >64 | > 64 | >64 | > 64 | 32 (≈ 89.3 µM) | 32 (≈ 89.3 µM) | 32 (≈ 89.3 µM) | inhibition at 16 µg/mL [6]: > 60%
C[C@@H]1[C@H](O)[C@@H](C)/C=C/C=C/C=C/C=C/C=C/C=C/C=C/[C@H](O[C@@H]2O[C@H](C)[C@@H](O)[C@H](N)[C@@H]2O)C[C@@H]2O[C@](O)(C[C@@H](O)C[C@@H](O)[C@H](O)CC[C@@H](O)C[C@@H](O)CC(=O)O[C@H]1C)C[C@H](O)[C@H]2C(=O)O [Amphotericin B, reference compound] |  |  |  |  | 16 (≈ 17.3 µM) | 4 (≈ 4.33 µM) | 1 (≈ 1.08 µM) | 1 (≈ 1.08 µM) |  |  |  |  |  | 
c1ccc(CNCCCCOc2cccc3[nH]c4ccccc4c23)cc1 [parent compound, 4-[4-(benzylamino)butoxy]-9H-carbazole] |  |  |  |  |  |  |  |  |  |  |  |  |  | inhibition of E. coli growth [8]: 10%; reduction in bacterial growth (S. aureus) ([9]; 20 µg/mL): 22%; MIC ([9]; S. aureus): 30 µg/mL (≈ 87.1 µM)
Br.C[C@@H](NCCCCOc1cccc2[nH]c3ccccc3c12)c1ccccc1 [Compound 9, (R)-4-[4-(1-phenylethylamino)butoxy]-9H-carbazole hydrobromide] | 32 | 92 to 96 | >64 | > 64 | >64 | > 64 | >64 | > 64 | >64 | > 64 | 32 | 64 | 64 | decrease in cell viability ([7]; 4 µg/mL, human fibroblasts, 24 h): 40%; toxicity to human fibroblasts, ranking in words [7]: highest toxicity
CC1=NN(c2ccccc2)C(=O)C1=NNNC(=O)Cn1c2ccccc2c2ccccc21 [derivative 8, (4-[3-(9H-Carbazol-9-yl-acetyl)triazanylidene]-5-methyl-2-phenyl-2,4-dihydro-3H-pyrazol-3-one)] |  |  |  |  |  |  |  |  |  |  |  |  |  | MIC [10]: 10.3 µg/mL (≈ 24.3 µM); MIC [11]: 1.1 µg/mL (≈ 2.59 µM); MIC [12]: 9.6 µg/mL (≈ 22.6 µM); MIC [13]: 6.4 µg/mL (≈ 15.1 µM)
Fc1cccc(CNCCCCOc2cccc3[nH]c4ccccc4c23)c1 [Compound 2, 4-[4-(3-fluorophenylmethylamino)butoxy]-9H-carbazole] | 32 (≈ 88.3 µM) |  | >64 | > 64 | >64 | > 64 | >64 | > 64 | >64 | > 64 | 32 (≈ 88.3 µM) | 32 (≈ 88.3 µM) | 32 (≈ 88.3 µM) | inhibition at 64 µg/mL [4]: ~60%; inhibition at 16 µg/mL [6]: > 60%

Source: article PMC10530720, “Antimicrobial Activity and Toxicity of Newly Synthesized 4-[4-(benzylamino)butoxy]-9H-carbazole Derivatives” (International Journal of Molecular Sciences, 2023)
